Measurements taken from ChEMBL document CHEMBL4373679, “Overcoming synthetic challenges in targeting coenzyme A biosynthesis with the antimicrobial natural product CJ-15,801” (Medchemcomm, 2019).

Columns and labels:
Type in all cases: functional, organism-based
Plasmodium falciparum [1] = assay: Antimalarial activity against Plasmodium falciparum infected in erythrocytes in presence of 1 uM pantothenic acid by SYBR safe-based fluorescence assay
Plasmodium falciparum [2] = assay: Antimalarial activity against Plasmodium falciparum infected in erythrocytes in presence of 1 uM pantothenic acid and TBA salt form by SYBR safe-based fluorescence assay
Plasmodium falciparum [3] = assay: Antimalarial activity against Plasmodium falciparum infected in erythrocytes in presence of 100 uM pantothenic acid and TBA salt form by SYBR safe-based fluorescence assay

Row | Structure (SMILES) | IC50 (Plasmodium falciparum [1]) | IC50 (Plasmodium falciparum [2]) | IC50 (Plasmodium falciparum [3])
1 | CC(C)(CO)[C@@H](O)C(=O)N/C=C/C(=O)O | 64 µM | 25 µM | 25 µM
2 | CCCC[N+](CCCC)(CCCC)CCCC [TETRABUTHYLAMMONIUM] | 5 µM | – | –
